Reference: patent US20250101041A1, “POSITIVE ALLOSTERIC MODULATORS OF THE MUSCARINIC ACETYLCHOLINE RECEPTOR M4” (Vanderbilt University, priority 2022, published 2025)

Target: T1, human mAChR M4 (Homo sapiens, UniProt P08173)
T1 construct: expressed in transfected cells; host or cells: CHO-K1 (American Type Culture Collection), stably expressing hM4 and Gqi5
T1 sequence (P08173 1-479): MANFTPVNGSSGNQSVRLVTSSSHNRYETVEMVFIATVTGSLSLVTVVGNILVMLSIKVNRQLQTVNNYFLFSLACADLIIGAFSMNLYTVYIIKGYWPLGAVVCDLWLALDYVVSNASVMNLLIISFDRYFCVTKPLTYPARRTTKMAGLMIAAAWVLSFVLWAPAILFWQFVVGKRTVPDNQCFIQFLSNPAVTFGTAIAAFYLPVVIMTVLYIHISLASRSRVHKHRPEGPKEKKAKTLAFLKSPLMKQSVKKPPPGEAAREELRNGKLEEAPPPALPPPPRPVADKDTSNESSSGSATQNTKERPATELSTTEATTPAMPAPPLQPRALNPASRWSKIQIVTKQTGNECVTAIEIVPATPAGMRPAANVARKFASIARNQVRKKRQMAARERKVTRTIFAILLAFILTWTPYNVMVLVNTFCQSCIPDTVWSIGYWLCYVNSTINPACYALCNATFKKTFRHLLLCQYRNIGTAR
Experiment: mAChR M4 cell-based functional assay: calcium mobilization (Fluo-4, FDSS), potentiation of EC20 acetylcholine response in hM4-Gqi5 CHO-K1 cells
Conditions: human M4; for Emax at 30 µM: CHO-K1, % ACh maximum at 30 μM; for EC50: potentiation of EC20 acetylcholine response, calcium mobilization
Procedure, shortened: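 CHO-K1 cells stably co-expressing human M4 and chimeric Gqi5, loaded with Fluo-4 AM (50 min, 37 °C). Compounds in 11-point 1:3 series added first; EC20 acetylcholine added at 144 s and again at 230 s. Calcium read on FDSS at 1 Hz; EC50 and Emax from four-parameter logistic fit of potentiated EC20 response.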

Emax at 30 µM	EC50	Structure (SMILES)
77%	318 nM	Cc1c(N2CCc3ncc(-n4cccn4)cc3C2)nn2c(=O)ccnc2c1C [Compound 2-34, 7-(3-(1H-pyrazol-1-yl)-7,8-dihydro-1,6-naphthyridin-6(5H)-yl)-8,9-dimethyl-4H-pyrimido[1,2-b]pyridazin-4-one]
96%	46 nM	Cc1cc2n(n1)CCCN2c1cnc2c(c1)CN(c1nn3c(=O)ccnc3c(C)c1C)CC2 [Compound 2-35, 8,9-dimethyl-7-(3-(2-methyl-6,7-dihydropyrazolo[1,5-a]pyrimidin-4(5H)-yl)-7,8-dihydro-1,6-naphthyridin-6(5H)-yl)-4H-pyrimido[1,2-b]pyridazin-4-one]
103%	13 nM	Cc1c(N2CCc3ncc(N4CCCn5nccc54)cc3C2)nn2c(=O)ccnc2c1C [Compound 2-36, 7-(3-(6,7-dihydropyrazolo[1,5-a]pyrimidin-4(5H)-yl)-7,8-dihydro-1,6-naphthyridin-6(5H)-yl)-8,9-dimethyl-4H-pyrimido[1,2-b]pyridazin-4-one]
81%	1340 nM	Cc1cc(=O)n2nc(N3CCc4ncc(N5CC6CC5CO6)cc4C3)c(C)c(C)c2n1 (stereo not shown) [Compound 2-37, 7-(3-(2-oxa-5-azabicyclo[2.2.1]heptan-5-yl)-7,8-dihydro-1,6-naphthyridin-6(5H)-yl)-2,8,9-trimethyl-4H-pyrimido[1,2-b]pyridazin-4-one]
76%	1300 nM	Cc1cc(=O)n2nc(N3CCc4ncc(N5C[C@@H](C)O[C@@H](C)C5)cc4C3)c(C)c(C)c2n1 [Compound 2-38, 7-(3-((2R,6S)-2,6-dimethylmorpholino)-7,8-dihydro-1,6-naphthyridin-6(5H)-yl)-2,8,9-trimethyl-4H-pyrimido[1,2-b]pyridazin-4-one]
96%	123 nM	Cc1cc(=O)n2nc(N3CCc4ncc(N5CCOC(C)(C)C5)cc4C3)c(C)c(C)c2n1 [Compound 2-39, 7-(3-(2,2-dimethylmorpholino)-7,8-dihydro-1,6-naphthyridin-6(5H)-yl)-2,8,9-trimethyl-4H-pyrimido[1,2-b]pyridazin-4-one]
90%	29 nM	Cc1c(N2CCc3ncc(N4CCOC(C)(C)C4)cc3C2)nn2c(=O)cc(C(F)F)nc2c1C [Compound 2-40, 2-(difluoromethyl)-7-(3-(2,2-dimethylmorpholino)-7,8-dihydro-1,6-naphthyridin-6(5H)-yl)-8,9-dimethyl-4H-pyrimido[1,2-b]pyridazin-4-one]
96%	822 nM	Cc1c(N2CCc3ncc(N4C[C@@H](C)O[C@@H](C)C4)cc3C2)nn2c(=O)cc(C(F)F)nc2c1C [Compound 2-41, 2-(difluoromethyl)-7-(3-((2R,6S)-2,6-dimethylmorpholino)-7,8-dihydro-1,6-naphthyridin-6(5H)-yl)-8,9-dimethyl-4H-pyrimido[1,2-b]pyridazin-4-one]
77%	850 nM	Cc1cc(=O)n2nc(N3CCc4ncc(N5CC6CC5CO6)cc4C3)c(C)cc2n1 (stereo not shown) [Compound 2-42, 7-(3-(2-oxa-5-azabicyclo[2.2.1]heptan-5-yl)-7,8-dihydro-1,6-naphthyridin-6(5H)-yl)-2,8-dimethyl-4H-pyrimido[1,2-b]pyridazin-4-one]
76%	310 nM	Cc1cc(=O)n2nc(N3CCc4ncc(N5CC6CCC(C5)O6)cc4C3)c(C)c(C)c2n1 [Compound 2-43, 7-(3-(8-oxa-3-azabicyclo[3.2.1]octan-3-yl)-7,8-dihydro-1,6-naphthyridin-6(5H)-yl)-2,8,9-trimethyl-4H-pyrimido[1,2-b]pyridazin-4-one]
65%	611 nM	Cc1cc(=O)n2nc(N3CCc4ncc(NCC5CCCOC5)cc4C3)c(C)c(C)c2n1 (stereo not shown) [Compound 2-44, 2,8,9-trimethyl-7-(3-(((tetrahydro-2H-pyran-3-yl)methyl)amino)-7,8-dihydro-1,6-naphthyridin-6(5H)-yl)-4H-pyrimido[1,2-b]pyridazin-4-one]
66%	827 nM	COC1CCN(c2cnc3c(c2)CN(c2nn4c(=O)cc(C)nc4c(C)c2C)CC3)CC1 [Compound 2-45, 7-(3-(4-methoxypiperidin-1-yl)-7,8-dihydro-1,6-naphthyridin-6(5H)-yl)-2,8,9-trimethyl-4H-pyrimido[1,2-b]pyridazin-4-one]
99%	308 nM	Cc1cc(=O)n2nc(N3CCc4ncc(N5CCSCC5)cc4C3)c(C)c(C)c2n1 [Compound 2-46, 2,8,9-trimethyl-7-(3-thiomorpholino-7,8-dihydro-1,6-naphthyridin-6(5H)-yl)-4H-pyrimido[1,2-b]pyridazin-4-one]
66%	2150 nM	Cc1cc(=O)n2nc(N3CCc4ncc(N5CCC6(CC5)COC6)cc4C3)c(C)c(C)c2n1 [Compound 2-47, 7-(3-(2-oxa-7-azaspiro[3.5]nonan-7-yl)-7,8-dihydro-1,6-naphthyridin-6(5H)-yl)-2,8,9-trimethyl-4H-pyrimido[1,2-b]pyridazin-4-one]
79%	334 nM	Cc1c(N2CCc3ncc(N4CCC(F)(F)CC4)cc3C2)nn2c(=O)cc(C(F)F)nc2c1C [Compound 2-48, 2-(difluoromethyl)-7-(3-(4,4-difluoropiperidin-1-yl)-7,8-dihydro-1,6-naphthyridin-6(5H)-yl)-8,9-dimethyl-4H-pyrimido[1,2-b]pyridazin-4-one]
75%	1200 nM	Cc1cc(=O)n2nc(N3CCc4ncc(N5CCOC(c6cccnc6)C5)cc4C3)c(C)c(C)c2n1 (stereo not shown) [Compound 2-49, 2,8,9-trimethyl-7-(3-(2-(pyridin-3-yl)morpholino)-7,8-dihydro-1,6-naphthyridin-6(5H)-yl)-4H-pyrimido[1,2-b]pyridazin-4-one]
53%	837 nM	Cc1cc(=O)n2nc(N3CCc4ncc(NCc5csc(C)n5)cc4C3)c(C)c(C)c2n1 [Compound 2-50, 2,8,9-trimethyl-7-(3-(((2-methylthiazol-4-yl)methyl)amino)-7,8-dihydro-1,6-naphthyridin-6(5H)-yl)-4H-pyrimido[1,2-b]pyridazin-4-one]
80%	125 nM	Cc1cc2nccc(=O)n2nc1N1CCc2ncc(N3CC(C)(C)Oc4ccccc43)cc2C1 [Compound 2-51, 7-(3-(2,2-dimethyl-2,3-dihydro-4H-benzo[b][1,4]oxazin-4-yl)-7,8-dihydro-1,6-naphthyridin-6(5H)-yl)-8-methyl-4H-pyrimido[1,2-b]pyridazin-4-one]
89%	16 nM	Cc1cc2nccc(=O)n2nc1N1CCc2ncc(N3c4ccc(F)cc4OCC3C)cc2C1 (stereo not shown) [Compound 2-52, 7-(3-(7-fluoro-3-methyl-2,3-dihydro-4H-benzo[b][1,4]oxazin-4-yl)-7,8-dihydro-1,6-naphthyridin-6(5H)-yl)-8-methyl-4H-pyrimido[1,2-b]pyridazin-4-one]
87%	28 nM	Cc1ccc2c(c1)N(c1cnc3c(c1)CN(c1nn4c(=O)ccnc4cc1C)CC3)CCO2 [Compound 2-53, 8-methyl-7-(3-(6-methyl-2,3-dihydro-4H-benzo[b][1,4]oxazin-4-yl)-7,8-dihydro-1,6-naphthyridin-6(5H)-yl)-4H-pyrimido[1,2-b]pyridazin-4-one]
